Our source for the IC50 values is patent US9090583B2, “Benzopyrone estrogen receptor regulator” (BEIJING SHENOGEN PHARMA GROUP LTD., priority 2010, dated 2015).

pIC50: −log10 of the molar value.

The subject of experiment [1] is MCF7 cells. In words: CellTiter-Glo Luminescent Cell Viability Assay on ER-positive breast cancer MCF-7 cells. To be noted: Homo sapiens, MCF7, 72 h, average ± standard deviation when tested more than 3 times, read-out: Inhibition of the viability of breast cancer cells, IC50. It counts as cell-based, human. The source says:
B: In Vitro CellTiter-Glo® Luminescent Cell Viability Assay on ER-Positive Breast Cancer MCF-7 Cells:
MCF7 cells are breast cancer cell lines that highly express ER-66, ER-46 and ER-36. (Relevance of breast cancer cell lines as models for breast tumours: an update. Marc Lacroix, Guy Leclercq, Breast Cancer Research and Treatment (2004) 83, 249-289; Wang et al., Proc. Natl. Acad. Sci. U.S.A. 103:9063-9068 (2006)). MCF7 cells were obtained from ATCC and maintained in Dulbecco's Modified Eagles Medium (DMEM) and 10% fetal calf serum at 37° C., under 5% CO2 atmosphere. The cells were seeded on 96-well plate at a density of 6×10^3 cells per well. MCF7 cells were treated with a test compound dissolved in DMSO at the concentrations of zero, 0.3 μM, 0.5 μM, 1 μM, 2 μM, 3 μM, 5 μM, 10 μM, 20 μM, 30 μM, 50 μM and 100 μM for 72 hours. Treated cells were examined by CellTiter-Glo® Luminescent Cell Viability Assay Kit (Promega), and luminescence values were recorded with Envision.
For orientation: In ATP-based viability assays light output follows the ATP content of the culture.

For experiment [2], the system named is MDA-MB-231 cells. In words: CellTiter-Glo Luminescent Cell Viability Assay on ER-negative breast cancer MDA-MB-231 cells. The format is cell-based. As to conditions: Homo sapiens, MDA-MB-231, 72 h, average ± standard deviation when tested more than 3 times, read-out: Inhibition of the viability of breast cancer cells, IC50. The procedure:
A: In Vitro CellTiter-Glo® Luminescent Cell Viability Assay on ER-Negative Breast Cancer MDA-MB-231 Cells:
MDA-MB-231 cells were maintained at 37° C., under 5% CO2 atmosphere in DMEM containing 10% fetal calf serum. The cells were seeded on 96-well plate at a density of 6×10^3 cells per well. MDA-MB-231 cells were treated with a test compound dissolved in DMSO at the concentrations of zero, 0.3 μM, 0.5 μM, 1 μM, 2 μM, 3 μM, 5 μM, 10 μM, 20 μM, 30 μM, 50 μM and 100 μM for 72 hours. Treated cells were examined by CellTiter-Glo® Luminescent Cell Viability Assay Kit (Promega), and luminescence values were recorded with Envision.

`COc1c(CC=C(C)C)c(O)c2c(=O)c(OC)c(-c3ccc(F)c(F)c3)oc2c1CC=C(C)C` [Compound 81A, 2-(3,4-difluorophenyl)-5-hydroxy-3,7-dimethoxy-6,8-di(3-methyl-2-buten-1-yl)-4H-benzopyran-4-one]: the negative logarithm of the IC50 (pIC50) in experiment [1] and in experiment [2] was less than 4.00 in each case.
With `COc1c(CC=C(C)C)cc2c(=O)c(OC)c(-c3ccc(F)c(F)c3)oc2c1CC=C(C)C` [Compound 81B, 2-(3,4-difluorophenyl)-3,7-dimethoxy-6,8-di(3-methyl-2-buten-1-yl)-4H-benzopyran-4-one], the pIC50 in experiment [1] and in experiment [2] was less than 4.00 throughout.
For the molecule `COc1c(CC=C(C)C)c(O)c2c(=O)c(OC)c(-c3ccc(Cl)c(F)c3)oc2c1CC=C(C)C` [Compound 82A, 2-(3-fluoro-4-chlorophenyl)-5-hydroxy-3,7-dimethoxy-6,8-di(3-methyl-2-buten-1-yl)-4H-benzopyran-4-one], the negative logarithm of the IC50 (pIC50) in experiment [1] and in experiment [2] was less than 4.00 in each case.
`COc1c(CC=C(C)C)c(OC)c2c(=O)c(OC)c(-c3ccc(Cl)c(F)c3)oc2c1CC=C(C)C` [Compound 82B, 2-(3-fluoro-4-chlorophenyl)-3,5,7-trimethoxy-6,8-di(3-methyl-2-buten-1-yl)-4H-benzopyran-4-one]: the negative-log IC50 (pIC50) (usually the negative decadic logarithm of the IC50, by convention in mol/L) in experiment [1] is less than 4.00; in experiment [2], 4.58.
In the case of `CC(C)=CCc1c(O)c(CC=C(C)C)c2oc(-c3ccc(F)c(F)c3)cc(=O)c2c1O` [Compound 85, 2-(3,4-difluorophenyl)-5,7-dihydroxy-6,8-di(3-methyl-2-buten-1-yl)-4H-benzopyran-4-one], the pIC50 in experiment [1] and in experiment [2] was less than 4.00 each time.
In the case of `CC(C)=CCc1c(O)c(CC=C(C)C)c2oc(-c3ccc(Cl)c(F)c3)cc(=O)c2c1O` [Compound 86, 2-(3-fluoro-4-chlorophenyl)-5,7-dihydroxy-6,8-di(3-methyl-2-buten-1-yl)-4H-benzopyran-4-one], the negative logarithm of the IC50 (pIC50) in experiment [1] and in experiment [2] was less than 4.00 throughout.
With `CC(C)=CCc1c(O)c(CC=C(C)C)c2oc(-c3ccc(C)cc3)cc(=O)c2c1O` [Compound 87, 2-(4-methylphenyl)-5,7-dihydroxy-6,8-di(3-methyl-2-buten-1-yl)-4H-benzopyran-4-one], the results for the pIC50 in experiment [1] and in experiment [2] were less than 4.00 and 4.79, respectively.
Consider `CC(C)=CCc1c(O)c(CC=C(C)C)c2oc(-c3ccc(Cl)c(Cl)c3)cc(=O)c2c1O` [Compound 88, 2-(3,4-dichlorophenyl)-5,7-dihydroxy-6,8-di(3-methyl-2-buten-1-yl)-4H-benzopyran-4-one], for which the values for the pIC50 in experiment [1] and in experiment [2] were less than 4.00 and 4.79, respectively.
In the case of `CC(C)=CCc1c(O)c(CC=C(C)C)c2oc(-c3ccc(F)cc3)cc(=O)c2c1O` [Compound 89, 2-(4-fluorophenyl)-5,7-dihydroxy-6,8-di(3-methyl-2-buten-1-yl)-4H-benzopyran-4-one], the pIC50 in experiment [1] and in experiment [2] was less than 4.00 throughout.
On to `CC(C)=CCc1c(O)c(CC=C(C)C)c2oc(-c3ccc(Cl)cc3)cc(=O)c2c1O` [Compound 91, 2-(4-chlorophenyl)-5,7-dihydroxy-6,8-di(3-methyl-2-buten-1-yl)-4H-benzopyran-4-one], for which the values for the negative-log IC50 (pIC50) in experiment [1] and in experiment [2] were less than 4.00 and 5.05, respectively.
As for `CC(C)=CCc1c(O)c(CC=C(C)C)c2oc(-c3cccnc3)cc(=O)c2c1O` [Compound 92, 2-(pyridin-3-yl)-5,7-dihydroxy-6,8-di(3-methyl-2-buten-1-yl)-4H-benzopyran-4-one], the pIC50 in experiment [1] is less than 4.00; in experiment [2] it was 4.67.
On the same counts, the results for `CC(C)=CCc1c(O)c(CC=C(C)C)c2oc(-c3ccc(F)c(F)c3)c(C)c(=O)c2c1O` [Compound 93, 2-(3,4-difluorophenyl)-3-methyl-5,7-dihydroxy-6,8-di(3-methyl-2-buten-1-yl)-4H-benzopyran-4-one] are 4.81 and 4.56.
